Patent US20100160369A1, “S1P1 Agonists and Methods of Making And Using” (EXELIXIS, INC., priority 2008, published 2010)

Key:
hS1P1R (hEdg1) = molecular target: T1, hS1P1R (hEdg1) (Homo sapiens, UniProt P21453); experiment: hS1P1R GTPγS Binding Assay (Assay 3a); type: biochemical
T1 construct: purchased Lonza
Summary of the method: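 Human S1P1 receptor membranes (4 μg) incubated 1 h at room temperature with 30 μM GDP, 0.1 nM [35S]GTPγS, 0.25% fatty-acid-free BSA and serially diluted agonist in pH 7.9 Tris buffer with Mg2+ and EGTA. Bound radioactivity read by WGA SPA after a further 1 h; EC50 reported unless noted.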

S1P1 [1] = molecular target: T2, S1P1 (Homo sapiens, UniProt P21453); experiment: Tango β-arrestin Recruitment Assay in U2OS cells (Assay 2b); type: cell-based; design: linker with TEV protease (N1a) cleavage site (C); settings: Tango β-arrestin Recruitment Assay, read-out: Assay 2b EC50
Summary of the method: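 U2OS cells expressing S1P1 and reporter, serum-starved 48 h, treated with compound (10-point 3-fold series, top 1 μM, 1% DMSO) overnight at 37 °C; β-lactamase substrate added 2 h at room temperature. F460/F530 ratio normalised to 1 μM S1P (100%) and DMSO; EC50 from concentration-response.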

S1P1 [2] = molecular target: T2, S1P1; experiment: Tango β-arrestin Recruitment Assay in HEK293 cells (Assay 2a); type: cell-based; design: linker with TEV protease (N1a) cleavage site (C); host or cells: HEK293, transiently transfected; settings: Tango β-arrestin Recruitment Assay, read-out: Assay 2a EC50
Summary of the method: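 HEK293 cells transiently expressing S1P1 (TEV-cleavable tTA fusion) with β-arrestin2–TEV; compounds up to 10 μM, 10-point 3-fold, 1% DMSO, 30 min then 16–18 h at 37 °C. Luciferase luminescence normalised to 5 μM S1P as 100% and DMSO as background; EC50 from percent-activity curves.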

T2 sequence (P21453 whole entry): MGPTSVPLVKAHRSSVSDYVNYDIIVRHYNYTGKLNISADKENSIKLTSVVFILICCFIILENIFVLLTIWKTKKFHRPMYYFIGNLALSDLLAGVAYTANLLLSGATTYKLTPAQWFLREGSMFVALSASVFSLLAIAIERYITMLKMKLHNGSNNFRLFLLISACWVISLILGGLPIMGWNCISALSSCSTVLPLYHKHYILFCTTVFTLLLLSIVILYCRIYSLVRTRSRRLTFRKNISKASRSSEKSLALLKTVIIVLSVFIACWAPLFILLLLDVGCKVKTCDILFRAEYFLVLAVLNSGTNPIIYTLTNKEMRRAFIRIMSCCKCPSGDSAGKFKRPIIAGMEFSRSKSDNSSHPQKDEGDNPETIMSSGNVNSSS
T2 sequence (P32121 whole entry partner): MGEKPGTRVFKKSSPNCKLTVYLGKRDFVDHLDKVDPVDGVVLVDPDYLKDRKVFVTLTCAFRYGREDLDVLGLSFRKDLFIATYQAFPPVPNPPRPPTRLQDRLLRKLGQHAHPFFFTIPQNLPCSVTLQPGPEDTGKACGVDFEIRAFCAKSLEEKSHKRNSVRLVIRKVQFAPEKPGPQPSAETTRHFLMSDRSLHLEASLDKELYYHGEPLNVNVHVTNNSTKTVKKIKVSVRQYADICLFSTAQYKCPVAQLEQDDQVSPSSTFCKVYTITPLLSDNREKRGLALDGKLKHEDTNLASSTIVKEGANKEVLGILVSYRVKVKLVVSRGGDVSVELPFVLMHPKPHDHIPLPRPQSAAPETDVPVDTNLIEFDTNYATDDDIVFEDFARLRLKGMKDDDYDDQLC
T1 sequence (P21453 whole entry): as the sequence (P21453 whole entry) above

SMILES	EC50 (hS1P1R (hEdg1)) [nM]	EC50 (S1P1 [1]) [nM]	EC50 (S1P1 [2]) [nM]
C[C@H](CO)Oc1cc(Cl)c(-c2noc(-c3cn4cc(C(F)(F)F)cc(Cl)c4n3)n2)cc1F [Example 93, (2R)-2-[(5-chloro-4-{5-[8-chloro-6-(trifluoromethyl)imidazo[1,2-a]pyridin-2-yl]-1,2,4-oxadiazol-3-yl}-2-fluorophenyl)oxy]propan-1-ol]	≤ 100	≤ 100	≤ 100
OCC(O)COc1cc(Cl)c(-c2noc(-c3cn4cc(C(F)(F)F)cc(Cl)c4n3)n2)cc1Cl (stereo not drawn) [Example 208, 3-[(2,5-dichloro-4-{5-[8-chloro-6-(trifluoromethyl)imidazo[1,2-a]pyridin-2-yl]-1,2,4-oxadiazol-3-yl}phenyl)oxy]propane-1,2-diol]	≤ 100	≤ 100	≤ 100
O=C(O)CCc1cc(Cl)c(-c2nc(-c3cn4cc(C(F)(F)F)cc(Cl)c4n3)no2)cc1F [Example 233, 3-(5-chloro-4-{3-[8-chloro-6-(trifluoromethyl)imidazo[1,2-a]pyridin-2-yl]-1,2,4-oxadiazol-5-yl}-2-fluorophenyl)propanoic acid]	100 to 500	≤ 100	≤ 100
O=C(O)CCc1cc(Cl)c(-c2noc(-c3cn4cc(C(F)(F)F)cc(Cl)c4n3)n2)cc1Cl [Example 242, 3-(2,5-dichloro-4-{5-[8-chloro-6-(trifluoromethyl)imidazo[1,2-a]pyridin-2-yl]-1,2,4-oxadiazol-3-yl}phenyl)propanoic acid]	≤ 100	≤ 100	≤ 100
CC(C)Oc1cc(Cl)c2nc(-c3nc(-c4cc(F)c(CCC(=O)O)cc4Cl)no3)cn2c1 [Example 301, 3-[5-chloro-4-(5-{8-chloro-6-[(1-methylethyl)oxy]imidazo[1,2-a]pyridin-2-yl}-1,2,4-oxadiazol-3-yl)-2-fluorophenyl]propanoic acid]	100 to 500	≤ 100	≤ 100
O=C(O)CCc1cc(Cl)c(-c2noc(-c3cn4cc(I)cc(Cl)c4n3)n2)cc1F [Example 302, 3-{5-chloro-4-[5-(8-chloro-6-iodoimidazo[1,2-a]pyridin-2-yl)-1,2,4-oxadiazol-3-yl]-2-fluorophenyl}propanoic acid]	100 to 500	≤ 100	≤ 100

Further lines, results first:

EC50 (hS1P1R (hEdg1)) [nM]	EC50 (S1P1 [1]) [nM]	EC50 (S1P1 [2]) [nM]	SMILES
≤ 100	≤ 100	≤ 100	O=C(O)CCc1cc(Cl)c(-c2noc(-c3cn4cc(C(F)(F)F)cc(Cl)c4n3)n2)cc1F [Entry 24]
≤ 100	≤ 100	≤ 100	O=C(O)CCc1cc(Cl)c(-c2noc(-c3cn4cc(C(F)(F)F)cc(Br)c4n3)n2)cc1F [Entry 49]
≤ 100	≤ 100	≤ 100	Cc1cc(CCC(=O)O)c(Cl)cc1-c1noc(-c2cn3cc(C(F)(F)F)cc(Cl)c3n2)n1 [Entry 56]
≤ 100	≤ 100	≤ 100	O=C(O)CCc1cc(Cl)c(-c2nnc(-c3cn4cc(C(F)(F)F)cc(Cl)c4n3)s2)cc1F [Example 176, 3-(5-chloro-4-{5-[8-chloro-6-(trifluoromethyl)imidazo[1,2-a]pyridin-2-yl]-1,3,4-thiadiazol-2-yl}-2-fluorophenyl)propanoic acid]
≤ 100	≤ 100	≤ 100	O=C(O)CCc1cc(Cl)c(-c2nnc(-c3cn4cc(C(F)(F)F)cc(Br)c4n3)s2)cc1F [Example 177, 3-(4-{5-[8-bromo-6-(trifluoromethyl)imidazo[1,2-a]pyridin-2-yl]-1,3,4-thiadiazol-2-yl}-5-chloro-2-fluorophenyl)propanoic acid]
≤ 100	≤ 100	≤ 100	OCCOc1cc(Cl)c(-c2noc(-c3cn4cc(C(F)(F)F)cc(Cl)c4n3)n2)cc1F [Example 263, 2-[(5-chloro-4-{5-[8-chloro-6-(trifluoromethyl)imidazo[1,2-a]pyridin-2-yl]-1,2,4-oxadiazol-3-yl}-2-fluorophenyl)oxy]ethanol]
